Read-outs that look alike come from different tables or passages of the source.
Experiments:
Assay type in all cases: cell-based
[1] = tested on: rat primary tumors, histocultures; experiment: Drug effect in histocultures of rat primary tumors (inhibition of 3H-thymidine incorporation); details: Histocultures, Primary, 96 hours, read-out: Concentration producing 50% inhibition
[2] = tested on: Human pharynx FaDu; experiment: FGF-induced resistance, inhibition of BrdU incorporation; details: read-out: Drug concentration needed to produce 50% inhibition
Procedure: (§1) Prior to drug treatment, cells were incubated for 4 days with tumor CM or with r-aFGF ad/or r-bFGF-containing medium, supplemented with 1% FBS (final protein concentration adjusted to 2 mg/ml). The medium was renewed every other day.
(§2) The antiproliferative drug effect in histocultures was measured as inhibition of ^3H-thymidine incorporation quantified by autoradiography (Yen, W. C. et al. (1996) Pharm. Res. 13:1305-1312) and, for monolayers, as inhibition of BrdU incorporation or as reduction of total proteins by the sulforhodamine B assay (Au, J. L.-S. et al. (1998) Cancer Res. 58:2141-2148). For the latter, the two assays yielded qualitatively similar results. Cell kill induced by 96-hour drug treatment was monitored by the release of LDH into the culture medium. LDH activity was monitored by the conversion of tetrazolium to formazan (detected at 490 nm).
(§3) The experimental conditions are described briefly below. Cells were pretreated with human recombinant r-aFGF and/or r-bFGF for 96 hours and then with drugs for 96 hours. For the studies on cells derived from the human prostate, lung, pharynx, colon and breast cancer cells, the drug effect was determined by the inhibition of BrdU incorporation. For the study on the human leukemic cells, the drug effect was measured by the MTT assay, which measures the number of metabolically active cells (Alley, M. C. et al (1988) Cancer Res 48:589-601).

[3] = tested on: Human breast MCF7; experiment: as above; details: read-out: Drug concentration needed to produce 50% inhibition
Procedure: as §1, §2, §3

[4] = tested on: Human breast BC19 (subline of MCF7 transfected with mdr1); experiment: as above; details: read-out: Drug concentration needed to produce 50% inhibition
Procedure: as §1, §2, §3

[5] = tested on: Human colon HT-29; experiment: as above; details: read-out: Drug concentration needed to produce 50% inhibition
Procedure: as §1, §2, §3

[6] = tested on: Human prostate PC3; experiment: as above; details: Homo sapiens, read-out: Drug concentration needed to produce 50% inhibition
Procedure: as §1, §2, §3

[7] = tested on: Human lung A459; experiment: as above; details: read-out: Drug concentration needed to produce 50% inhibition
Procedure: as §1, §2, §3

[8] = tested on: Rat prostate MAT-LyLu; experiment: as above; details: read-out: Drug concentration needed to produce 50% inhibition
Procedure: as §1, §2, §3

[9] = tested on: rat lung metastasis cells, monolayers; experiment: Drug effect in monolayers of rat lung metastasis cells (inhibition of bromodeoxyuridine incorporation); details: 96 h, read-out: Concentration producing 50% inhibition
[10] = tested on: rat primary tumor cells, monolayers; experiment: Drug effect in monolayers of rat primary tumor cells (inhibition of bromodeoxyuridine incorporation); details: 96 h, read-out: Concentration producing 50% inhibition
[11] = tested on: rat lymph node metastasis cells, monolayers; experiment: Drug effect in monolayers of rat lymph node metastasis cells (inhibition of bromodeoxyuridine incorporation); details: 96 h, read-out: Concentration producing 50% inhibition
[12] = 96 h, r-aFGF + r-bFGF 0.04 ± 1 ng/ml
[13] = 96 h, r-aFGF + r-bFGF 0.08 ± 1 ng/ml
[14] = 96 h, r-aFGF + r-bFGF 0.32 ± 1 ng/ml
[15] = 96 h, r-aFGF + r-bFGF 0.64 ± 1 ng/ml
[16] = 96 h, r-aFGF + r-bFGF 1 ± 1 ng/ml

O=c1[nH]cc(F)c(=O)[nH]1 [5-Fluorouracil]
IC50 [1]: 33 ± 12 µM | IC50 ([2]; 96 h, r-aFGF + r-bFGF 0 ng/ml): 5.76 µM | IC50 [2, 12]: 5.44 µM | IC50 [2, 13]: 5.44 µM | IC50 ([2]; 96 h, r-aFGF + r-bFGF 0.16 ± 1 ng/ml): 5.47 µM | IC50 [2, 14]: 5.56 µM | IC50 [2, 15]: 9.69 µM | IC50 [2, 16]: 15.2 µM | IC50 ([2]; r-aFGF 0 ng/ml): 5.75 µM | IC50 ([2]; r-aFGF 1 ng/ml): 5.5 µM | IC50 ([2]; r-aFGF 10 ng/ml): 5.45 µM | IC50 ([2]; r-aFGF 50 ng/ml): 5.25 µM | IC50 ([2]; r-bFGF 0 ng/ml): 4.34 µM | IC50 ([2]; r-bFGF 1 ng/ml): 4.56 µM | IC50 ([2]; r-bFGF 10 ng/ml): 4.79 µM | IC50 ([2]; r-bFGF 50 ng/ml): 4.25 µM | IC50 ([3]; MCF7, r-bFGF 0 ng/ml): 0.991 µM | IC50 ([3]; MCF7, r-bFGF 0.01 ng/ml): 1.03 µM | IC50 ([3]; MCF7, r-bFGF 0.1 ng/ml): 1.37 µM | IC50 ([3]; MCF7, r-bFGF 1 ng/ml): 1.51 µM | IC50 ([4]; r-bFGF 0 ng/ml): 0.975 µM | IC50 ([4]; r-bFGF 0.01 ng/ml): 1.07 µM | IC50 ([4]; r-bFGF 0.1 ng/ml): 1.37 µM | IC50 ([4]; r-bFGF 1 ng/ml): 1.51 µM | IC50 ([5]; HT-29, 96 h, r-aFGF + r-bFGF 0 ng/ml): 1.64 µM | IC50 ([5]; HT-29, 96 h, r-aFGF + r-bFGF 0.04 ± 1 ng/ml): 1.76 µM | IC50 ([5]; HT-29, 96 h, r-aFGF + r-bFGF 0.08 ± 1 ng/ml): 1.55 µM | IC50 ([5]; HT-29, 96 h, r-aFGF + r-bFGF 0.16 ± 1 ng/ml): 1.61 µM | IC50 ([5]; HT-29, 96 h, r-aFGF + r-bFGF 0.32 ± 1 ng/ml): 2.77 µM | IC50 ([5]; HT-29, 96 h, r-aFGF + r-bFGF 0.64 ± 1 ng/ml): 5.21 µM | IC50 ([5]; HT-29, 96 h, r-aFGF + r-bFGF 1 ± 1 ng/ml): 7.07 µM | IC50 ([5]; HT-29, r-aFGF 0 ng/ml): 1.64 µM | IC50 ([5]; HT-29, r-aFGF 1 ng/ml): 1.62 µM | IC50 ([5]; HT-29, r-aFGF 10 ng/ml): 1.58 µM | IC50 ([5]; HT-29, r-aFGF 50 ng/ml): 1.63 µM | IC50 ([5]; HT-29, r-bFGF 0 ng/ml): 2.09 µM | IC50 ([5]; HT-29, r-bFGF 1 ng/ml): 2.36 µM | IC50 ([5]; HT-29, r-bFGF 10 ng/ml): 2.23 µM | IC50 ([5]; HT-29, r-bFGF 50 ng/ml): 2.25 µM | IC50 [6, 12]: 0.761 µM | IC50 [6, 13]: 1.15 µM | IC50 [6, 14]: 2.54 µM | IC50 [6, 15]: 3.77 µM | IC50 [6, 16]: 5.74 µM | IC50 ([6]; 96 h, r-aFGF + r-bFGF): 1.64 µM | IC50 ([6]; r-aFGF 0 ng/ml): 0.81 µM | IC50 ([6]; r-aFGF 1 ng/ml): 0.815 µM | IC50 ([6]; r-aFGF 10 ng/ml): 0.695 µM | IC50 ([6]; r-aFGF 50 ng/ml): 0.732 µM | IC50 ([6]; r-bFGF 0 ng/ml): 0.741 µM | IC50 ([6]; r-bFGF 1 ng/ml): 0.846 µM | IC50 ([6]; r-bFGF 10 ng/ml): 2.41 µM | IC50 ([6]; r-bFGF 50 ng/ml): 4.3 µM | IC50 ([7]; A459, 96 h, r-aFGF + r-bFGF 0 ng/ml): 0.862 µM | IC50 ([7]; A459, 96 h, r-aFGF + r-bFGF 0.04 ± 1 ng/ml): 0.908 µM | IC50 ([7]; A459, 96 h, r-aFGF + r-bFGF 0.08 ± 1 ng/ml): 0.995 µM | IC50 ([7]; A459, 96 h, r-aFGF + r-bFGF 0.16 ± 1 ng/ml): 1.01 µM | IC50 ([7]; A459, 96 h, r-aFGF + r-bFGF 0.32 ± 1 ng/ml): 1.62 µM | IC50 ([7]; A459, 96 h, r-aFGF + r-bFGF 0.64 ± 1 ng/ml): 2.09 µM | IC50 ([7]; A459, 96 h, r-aFGF + r-bFGF 1 ± 1 ng/ml): 3.63 µM | IC50 ([7]; A459, r-bFGF 0 ng/ml): 0.87 µM | IC50 ([7]; A459, r-bFGF 1 ng/ml): 1.01 µM | IC50 ([7]; A459, r-bFGF 10 ng/ml): 1.38 µM | IC50 ([7]; A459, r-bFGF 50 ng/ml): 1.71 µM | IC50 ([8]; r-bFGF 0 ng/ml): 0.746 µM | IC50 ([8]; r-bFGF 1 ng/ml): 1.05 µM | IC50 ([8]; r-bFGF 10 ng/ml): 1.99 µM | IC50 ([8]; r-bFGF 50 ng/ml): 3.25 µM | IC50 ([9]; Monolayers (passage 0)): 2.84 ± 0.24 µM | IC50 ([9]; Monolayers (passage 1)): 1.52 ± 0.08 µM | IC50 ([9]; Monolayers (passage 2)): 1.2 ± 0.04 µM | IC50 ([9]; Monolayers (passage 3)): 0.81 ± 0.04 µM | IC50 ([10]; Monolayers (passage 0)): 0.79 ± 0.04 µM | IC50 ([10]; Monolayers (passage 1)): 0.85 ± 0.03 µM | IC50 ([10]; Monolayers (passage 2)): 0.79 ± 0.06 µM | IC50 ([10]; Monolayers (passage 3)): 0.78 ± 0.04 µM | IC50 ([11]; Monolayers (passage 0)): 1.9 ± 0.06 µM | IC50 ([11]; Monolayers (passage 1)): 1.29 ± 0.06 µM | IC50 ([11]; Monolayers (passage 2)): 1.09 ± 0.04 µM | IC50 ([11]; Monolayers (passage 3)): 0.83 ± 0.1 µM

— patent US20040010001A1, “Methods and compositions for modulating cell proliferation and cell death” (priority 1999, published 2004)
